Assay results from PubChem BioAssay AID1963831 (Molecular Pharmacology Branch, DTP, NCI, 2024).
Where “and” joins values, the source holds several entries; their conditions need not be identical. Equal values may be shown once.

System: 889142-216-R-J1-PDC complex spheroid viability
Assay: Anticancer human tumor 889142-216-R-J1-PDC patient-derived bladder carcinoma cell line growth inhibition [POLQ]
Conditions: for viability, T/C: stronger effect = lower value
Protocol: Multicellular complex tumor spheroid response to Polymerase (POL) inhibitors (novobiocin, ART-558, RP6685) in combination with a variety of drugs and investigational agents in selected tumor cell lines
The POL inhibitors (novobiocin, ART-558, and RP6685) were evaluated both individually and in combination with standard of care and investigational anticancer small molecules within a complex spheroid model of solid tumors. . Complex spheroids include a stromal component modeled by human endothelial cells (HUVEC) and fibroblasts modeled by human mesenchymal stem cells (MSCs). The concentration ranges selected for each drug and investigational agent were based upon clinically achievable concentrations if the clinical Cmax of the agent was known.
Compounds. The drugs and investigational agents: novobiocin (NSC847541), ART-558 (NSC835418), RP-6685 (NSC848927), peposertib (NSC802822), ceralasertib (NSC780249), elimusertib (NSC800525), camonsertib (NSC841442), AZD-1390 (NSC803789), olaparib (NSC753686), talazoparib (NSC767125), rucaparib (NSC756644), sotorasib (NSC818433), MRTX-1133 (NSC836407), SN-38 (NSC673596), topotecan (NSC609699), epotoside (NSC141540), doxorubicin (NSC123127), gemcitabine (NSC613327), 5-fluorouracil (NSC19893), paclitaxel (NSC125973), vemurafenib (NSC761431), MSA-2 (NSC828583), SN-011 (NSC837082), adavosertib (NSC754352), prexasertib (NSC758257), carboplatin (NSC241240) and oxaliplatin (NSC266046), were obtained from the National Cancer Institute (NCI) Developmental Therapeutics Program Chemical Repository (21). The FDA-approved anticancer drug set is available from the Developmental Therapeutics Program at https://dtp.cancer.gov/organization/dscb/obtaining/. […] The stock solutions were prepared in dimethyl sulfoxide (DMSO, Sigma-Aldrich, St. Louis, MO, cat. D2650), except for the platinum compounds which were prepared in saline (Quality Biological, Gaithersburg, MD, cat. 114-055-101), at 800-fold the tested concentration and stored at -70 degrees C prior to their use. All drugs and investigational agents were tested over a range starting from a high concentration at or near the clinical Cmax and decreasing in half-log increments. If the clinical Cmax for an agent had not been determined, the highest concentration tested was 10 microM, except for SN-38, which was tested at a high concentration of 1 microM.
Cell Culture. All cells were maintained in an incubator at 37 degrees C and 5% CO2 with 95% humidity. The PDC lines were cultured according to standard operating procedures established by the NCI PDMR (https://pdmr.cancer.gov). Table 3 of the manuscript, lists the cell lines along with the number of the three cell types plated to form the mct-spheroids and media for tumor cell growth. After thawing, all PDC lines, except 997537-175-T-J1-PDC and 415267-285-R-J2-PDC, were cultured in Matrigel-coated flasks prepared with a working solution of 1X Ham's F-12 nutrient mix, without supplementation (Thermo Fisher Scientific, cat. 11765054), 100 U/mL penicillin-streptomycin (Thermo Fisher Scientific, cat. 15140122), and 2.5% Matrigel (Corning Inc., Corning, NY, cat. 354248) for the first three passages. The two PDC lines 997537-175-T-J1-PDC and 415267-285-R-J2-PDC were cultured on uncoated flasks. The 857933-349-R-J2-PDC line was cultured in 6C/Colon 1B media containing advanced DMEM/F-12 (Thermo Fisher Scientific, cat. 12634028), 10 mM HEPES (Thermo Fisher Scientific, cat. 15630080), 1X GlutaMAX supplement (Thermo Fisher Scientific, cat. 35050061), 0.1 mg/mL primocin (InvivoGen, San Diego, CA, cat. ant-pm-2), 10% defined fetal bovine serum, heat inactivated (HyClone Laboratories Inc., Logan, UT, cat. SH30070.03HI), 50% L-WRN conditioned media (ATCC, cat. CRL-3276), 1.25 mM N-Acetyl-L-cysteine (Sigma-Aldrich, cat. A9165), 10 mM nicotinamide (Sigma-Aldrich, cat. N0636), 1X B-27 supplement (Thermo Fisher Scientific, cat. 17504044), 1X N-2 supplement (Thermo Fisher Scientific, cat. […]

[1] = compound alone, run of 01/08/2024
[2] = compound alone, run of 01/19/2024
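Further: spheroids exposed to compounds for seven days.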
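Wherever viability, T/C is given: 100% = DMSO vehicle control viability.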

Row | Structure (SMILES) | viability, T/C (compound 0.0316 µM) | viability, T/C (compound 0.1 µM) | viability, T/C (compound 0.316 µM) | viability, T/C (compound 1 µM) | viability, T/C (compound 3.16 µM) | viability, T/C (compound 10 µM) | IC50 (curve of compound) | IC50 [1] [µM] | viability, T/C (compound 0.00316 µM) | viability, T/C (compound 0.01 µM) | IC50 [2] [µM] | viability, T/C (compound 0.000316 µM) | viability, T/C (compound 0.001 µM)
1 | CNCc1ccc(-c2[nH]c3cc(F)cc4c3c2CCNC4=O)cc1 | 113% and 99.8% and 88.3% | 91.7% and 96.3% and 114% | 86% and 112% and 90.9% | 88% and 96.9% and 104% | 87.2% and 83.7% and 97.5% | 76.9% and 70.9% and 70.5% | > 10 µM |  |  |  |  |  | 
2 | COC1C(OC(N)=O)C(O)C(Oc2ccc3c(O)c(NC(=O)c4ccc(O)c(CC=C(C)C)c4)c(=O)oc3c2C)OC1(C)C (stereo unspecified) | 109% [middle of 12 runs] |  | 94.6% [middle of 12 runs] |  |  |  |  | > 10 |  |  |  |  | 
3 | COc1cc(C2c3cc4c(cc3C(OC3OC5COC(C)OC5C(O)C3O)C3COC(=O)C23)OCO4)cc(OC)c1O (stereo unspecified) | 93.9% and 87.6% and 89.9% | 82.4% and 88.4% and 76.9% | 77.6% and 73% and 63.3% | 58.1% and 80.3% and 53.2% | 63.4% and 68.3% and 65.3% | 54.3% and 62.4% and 58.1% | > 10 µM |  |  |  |  |  | 
4 | COc1cc2cc(C(=O)CCC(=O)O)sc2cc1OC | 105% and 116% and 128% | 140% and 92% and 89.7% | 89.4% and 92.1% and 94.9% | 115% and 88.4% and 103% | 79.9% and 80.8% and 98% | 67.3% and 72.8% and 95.3% | > 10 µM |  |  |  |  |  | 
5 | COc1ccc([C@@H](O)c2cc(-c3ncnc4cc(N5CCOCC5)ccc34)c(F)cc2Cl)nn1 | 102% and 95.6% and 99.4% | 109% and 88.8% and 107% | 71.6% and 95% and 74.9% | 57.8% and 63.2% and 70.5% | 54.7% and 51.1% and 55.4% | 38.2% and 43.1% and 35.9% | > 10 µM and 2.58 µM and 3.9 µM |  |  |  |  |  | 
6 | COc1cccc(OCCCN)c1-c1cc(Nc2cnc(C#N)cn2)n[nH]1 | 42.5% and 62.6% and 50.3% | 34.7% and 51.5% and 47.2% | 37.9% and 47.7% and 42.3% | 34.4% and 42.8% and 40.6% |  |  | 0.0141 µM and 0.0818 µM and 0.041 µM |  | 93.9% and 84.5% and 84.6% | 53.2% and 89.7% and 71.7% |  |  | 
7 | COc1cccc2c1C(=O)c1c(O)c3c(c(O)c1C2=O)CC(O)(C(=O)CO)CC3OC1CC(N)C(O)C(C)O1 (stereo unspecified) | 59.4% and 71.1% and 60.1% | 61.1% and 79% and 56.2% | 46.8% and 46.4% and 36.7% | 2.75% and 11.6% and 1.69% | 0.71% and 1.11% and 0.66% | 1% and 1.39% and 1.05% | 0.241 µM and 0.29 µM and 0.153 µM |  |  |  |  |  | 
8 | Cc1cccc(N(C)C(=O)C2C(O)CCN2c2nc(C)cc(C(F)(F)F)c2C#N)c1 (stereo unspecified) |  |  |  |  | 94.3% [middle of 13 runs] |  |  | > 10 |  |  | > 10 |  | 
9 | Cn1ncnc1[C@H]1c2n[nH]c(=O)c3cc(F)cc(c23)N[C@@H]1c1ccc(F)cc1 | 87.3% and 104% and 84.8% | 76.4% and 64.8% and 72.8% |  |  |  |  | > 0.1 µM |  | 84.9% and 99.1% and 83.2% | 93.2% and 89.5% and 78.9% |  | 116% and 120% and 92.5% | 81.2% and 90.7% and 78%
10 | Nc1ccc(C#CCN(C(=O)Cc2ncc(C(F)(F)F)cc2C(F)(F)F)c2ccc(F)cc2)nn1 |  | 95.3% [middle of 13 runs] |  |  |  | 102% [middle of 13 runs] |  |  |  |  | > 10 |  | 
11 | Nc1ccn(C2OC(CO)C(O)C2(F)F)c(=O)n1 (stereo unspecified) | 62.2% and 68.3% and 56.9% | 47% and 40.3% and 54.1% | 44.5% and 47.4% and 45% | 44.4% and 48% and 49% | 44.2% and 42.1% and 40.3% | 37.1% and 38.8% and 31.7% | 0.0861 µM and 0.0737 µM and 0.318 µM |  |  |  |  |  | 
12 | O=C(Nc1ccc(O)c(NS(=O)(=O)c2ccc(F)cc2)c1)c1ccc(-c2ccccc2)cc1 | 91.2% and 109% and 105% | 85.2% and 97.7% and 112% | 114% and 129% and 88% | 112% and 139% and 119% | 101% and 130% and 122% | 75.8% and 76.8% and 71.4% | > 10 µM |  |  |  |  |  | 
13 | O=C(c1cc(Cc2n[nH]c(=O)c3ccccc23)ccc1F)N1CCN(C(=O)C2CC2)CC1 | 99.2% and 94.9% and 95.6% | 83.3% and 99.5% and 98.7% | 101% and 83.8% and 88.6% | 81.2% and 111% and 91.4% | 83.2% and 97.8% and 72.5% | 60.4% and 69.9% and 69% | > 10 µM |  |  |  |  |  | 
14 | O=c1[nH]cc(F)c(=O)[nH]1 | 97% and 89.8% and 113% | 93.8% and 95.1% and 88.7% | 106% and 83.7% and 94.8% | 94.5% and 79.1% and 72.9% | 76.2% and 61.7% and 80.9% | 67.3% and 59.5% and 77.3% | > 10 µM |  |  |  |  |  | 
